US5045549A, “Substituted 4-pyridone 3-carboxylic acid derivatives, method for their production and their pharmaceutical compositions” (priority 1986, dated 1991)
Values after ≈ are worked out from the molar mass of the structure shown. Like-named read-outs stand apart in the source and are kept apart here.

Columns and labels:
[1] = test system: Streptococcus beta-hemolytic; assay: MIC agar dilution assay (Table 1); format: cell-based; settings: for MIC50: read-out: MIC, 50% Inhibitious; for MIC90: read-out: MIC, 90% Inhibitious
[2] = test system: Bacteroides app.; assay: MIC agar dilution assay, anaerobe bacteria (Table 1); format: cell-based; settings: for MIC50: read-out: MIC, 50% Inhibitious; for MIC90: read-out: MIC, 90% Inhibitious
[3] = test system: Streptococcus faecalis; assay: MIC agar dilution assay (Table 1); format: cell-based; settings: Enterococcus faecalis; for MIC50: read-out: MIC, 50% Inhibitious; for MIC90: read-out: MIC, 90% Inhibitious
[4] = test system: Staphylococcus aureus MRSA; assay: MIC agar dilution assay (Table 1); format: cell-based; settings: for MIC50: read-out: MIC, 50% Inhibitious; for MIC90: read-out: MIC, 90% Inhibitious
[5] = test system: Staph. aureus Smith; assay: animal or person; settings: for ED50: Staphylococcus aureus, in Mus musculus, 168 h
Experimental: (§1) In this test, white mice (weight 20±2 g) of Charles River strain CDI received an intraperitoneal injection of a specific amount of a suspension of a bacterial cell culture. The amount is sufficient to cause death of untreated animals within 24-48 hrs. A half hour later, the test animals were administered either an oral or a subcutaneous dosing of the test compound in 0.5 ml of 0.2% starch solution. With streptococcal infections, the test animals received a second dose after 3 hrs. Each test group had 5 animals and each test was performed three times. The ED50 values were calculated on the basis of the survivors at 7 days. An estimate of the oral absorption of the test compounds was determined from the ratio of the ED50 values from the oral and subcutaneous dosings.

[6] = test system: Klebsiella pneum. AD; assay: animal or person; settings: for ED50: Klebsiella, in Mus musculus, 168 h
Experimental: as §1

[7] = test system: Escherichia coli 314; assay: animal or person; settings: for ED50: Escherichia coli, 314, in Mus musculus, 168 h
Experimental: as §1

[8] = test system: Strept. pneum. SVI; assay: animal or person; settings: for ED50: Mus musculus, 168 h
Experimental: as §1

[9] = test system: Staph. aureus SSC-80-32; assay: animal or person; settings: for ED50: Staphylococcus aureus, SSC8032, in Mus musculus, 168 h
Experimental: as §1

[10] = test system: Strept. pyogenes C 203; assay: animal or person; settings: for ED50: Streptococcus pyogenes, C203, in Mus musculus, 168 h
Experimental: as §1

[11] = test system: Bacteroides fragilis; assay: MIC agar dilution assay, anaerobe bacteria (Table 1); format: cell-based
[12] = test system: Streptococcus pneumoniae; assay: MIC agar dilution assay (Table 1); format: cell-based
[13] = test system: Staphylococcus aureus MSSA; assay: MIC agar dilution assay (Table 1); format: cell-based; settings: for MIC50: read-out: MIC, 50% Inhibitious; for MIC90: read-out: MIC, 90% Inhibitious
[14] = test system: MORG MORG; assay: MIC agar dilution assay (Table III); format: cell-based; settings: 18 h, read-out: MINIMAL INHIBITORY CONC.
Experimental: (§2) TEST: 406 METHOD: AGAR DIL
(§3) MEDIUM: MUEL-HIN INOCULUM: 1.OE+04 - 5.OE+04
(§4) INCUBATION: 18 Hrs. 35 Celsius

[15] = test system: STAPH AUR; assay: MIC agar dilution assay (Table III); format: cell-based; settings: 18 h, 24 STAPH AUR CMC 83 131, 35 Celsius, read-out: MINIMAL INHIBITORY CONC.
Experimental: as §2, §3, §4

[16] = test system: SERRAT MARC; assay: MIC agar dilution assay (Table III); format: cell-based; settings: 18 h, read-out: MINIMAL INHIBITORY CONC.
Experimental: as §2, §3, §4

[17] = test system: CITRO DIV; assay: MIC agar dilution assay (Table III); format: cell-based; settings: 18 CITRO DIV K 82 24; 18 Hrs, 35 Celsius; read-out: MINIMAL INHIBITORY CONC.
Experimental: (§5) The results are summarized in Table III. |TEST: 406 METHOD: […] |MEDIUM: […] |INCUBATION: 18 Hrs. 35 Celsius | Aerobic: T

[18] = test system: PSEU AERUG; assay: MIC agar dilution assay (Table III); format: cell-based; settings: 18 h, read-out: MINIMAL INHIBITORY CONC.
Experimental: as §5

[19] = test system: PROV STUA; assay: MIC agar dilution assay (Table III); format: cell-based; settings: 17 PROV STUA CMC 83 3; 18 Hrs, 35 Celsius; read-out: MINIMAL INHIBITORY CONC.
Experimental: as §5

[20] = test system: STREP FAEC; assay: MIC agar dilution assay (Table III); format: cell-based; settings: 18 h, read-out: MINIMAL INHIBITORY CONC.
Experimental: as §5

[21] = test system: ESCH COLI; assay: MIC agar dilution assay (Table III); format: cell-based; settings: 18 h, read-out: MINIMAL INHIBITORY CONC.
Experimental: as §5

[22] = o/s, estimate of oral absorption, 10080 min
[23] = read-out: MIC, 50% Inhibitious, 50%
[24] = read-out: MIC, 90% Inhibitious, 90%

SMILES: O=C(O)c1cn(C2CC2)c2cc(N3CCNCC3)c(F)cc2c1=O [CF, Ciprofloxacin]
- MIC50 ([1]; Streptococcus): 0.5 µg/mL (≈ 1.51 µM)
- MIC90 ([1]; Streptococcus): 1 µg/mL (≈ 3.02 µM)
- MIC50 ([2]; Bacteroides): 16 µg/mL (≈ 48.3 µM)
- MIC90 ([2]; Bacteroides): 16 µg/mL (≈ 48.3 µM)
- MIC50 [3]: 1 µg/mL (≈ 3.02 µM)
- MIC90 [3]: 2 µg/mL (≈ 6.04 µM)
- MIC50 ([4]; Staphylococcus aureus, MRSA): 1 µg/mL (≈ 3.02 µM)
- MIC90 ([4]; Staphylococcus aureus, MRSA): 1 µg/mL (≈ 3.02 µM)
- ED50 ([5]; po): 4.3 mg/kg
- ED50 ([5]; sc): 0.64 mg/kg
- Ratio o/s of the ED50 values from oral and subcutaneous administration [5, 22]: 6.7
- ED50 ([6]; po): 0.38 mg/kg
- ED50 ([6]; sc): 0.07 mg/kg
- Ratio o/s of the ED50 values from oral and subcutaneous administration [6, 22]: 4.8
- ED50 ([7]; po): 0.52 mg/kg
- ED50 ([7]; sc): 0.07 mg/kg
- Ratio o/s of the ED50 values from oral and subcutaneous administration [7, 22]: 7.4
- ED50 ([8]; po): 47 mg/kg
- ED50 ([8]; sc): 15 mg/kg
- Ratio o/s of the ED50 values from oral and subcutaneous administration [8, 22]: 3.1
- ED50 ([9]; po): 5.9 mg/kg
- ED50 ([9]; sc): 0.71 mg/kg
- Ratio o/s of the ED50 values from oral and subcutaneous administration [9, 22]: 8.3
- ED50 ([10]; po): 21 mg/kg
- ED50 ([10]; sc): 4 mg/kg
- Ratio o/s of the ED50 values from oral and subcutaneous administration [10, 22]: 5.3
- MIC50 ([11]; read-out: MIC, 50% Inhibitious): 4 µg/mL (≈ 12.1 µM)
- MIC90 ([11]; read-out: MIC, 90% Inhibitious): 4 µg/mL (≈ 12.1 µM)
- MIC50 ([12]; read-out: MIC, 50% Inhibitious): 1 µg/mL (≈ 3.02 µM)
- MIC90 ([12]; read-out: MIC, 90% Inhibitious): 2 µg/mL (≈ 6.04 µM)
- MIC50 ([13]; Staphylococcus aureus, MSSA): 0.5 µg/mL (≈ 1.51 µM)
- MIC90 ([13]; Staphylococcus aureus, MSSA): 1 µg/mL (≈ 3.02 µM)

SMILES: CCn1cc(C(=O)O)c(=O)c2cc(F)c(N3CCNCC3)nc21 [EC, Enoxacin]
- MIC50 ([2]; Bacteroides app., 50%): 16 µg/mL (≈ 49.9 µM)
- MIC50 [11, 23]: 16 µg/mL (≈ 49.9 µM)
- MIC90 [11, 24]: 16 µg/mL (≈ 49.9 µM)

SMILES: CN1CC2CC1CN2c1cc2c(cc1F)c(=O)c(C(=O)O)cn2-c1ccc(F)cc1 (stereo not shown) [Example 5, 6-Fluoro-1-(4-fluorophenyl)-1,4-dihydro-7(5-methyl-2,5-diazabicyclo(2.2.1)hept-2-yl)-4-oxoquinoline-3-carboxylic acid]
- MIC50 ([1]; Streptococcus): 1 µg/mL (≈ 2.43 µM)
- MIC90 ([1]; Streptococcus): 4 µg/mL (≈ 9.72 µM)
- MIC50 ([2]; Bacteroides): 8 µg/mL (≈ 19.4 µM)
- MIC90 ([2]; Bacteroides): 8 µg/mL (≈ 19.4 µM)
- MIC50 [3]: 4 µg/mL (≈ 9.72 µM)
- MIC90 [3]: 8 µg/mL (≈ 19.4 µM)
- MIC50 ([4]; Staphylococcus aureus, MRSA): 0.25 µg/mL (≈ 0.608 µM)
- MIC90 ([4]; Staphylococcus aureus, MRSA): 1 µg/mL (≈ 2.43 µM)
- MIC50 ([11]; read-out: MIC, 50% Inhibitious): 4 µg/mL (≈ 9.72 µM)
- MIC90 ([11]; read-out: MIC, 90% Inhibitious): 4 µg/mL (≈ 9.72 µM)
- MIC50 ([12]; read-out: MIC, 50% Inhibitious): 1 µg/mL (≈ 2.43 µM)
- MIC90 ([12]; read-out: MIC, 90% Inhibitious): 2 µg/mL (≈ 4.86 µM)
- MIC50 ([13]; Staphylococcus aureus, MSSA): 0.25 µg/mL (≈ 0.608 µM)
- MIC90 ([13]; Staphylococcus aureus, MSSA): 0.5 µg/mL (≈ 1.22 µM)

SMILES: CCn1cc(C(=O)O)c(=O)c2cc(F)c(N3CCN(C)CC3)cc21 [PF, Pefloxacin, reference compound]
- MIC50 ([1]; Streptococcus beta-hemolytic, 50%): 4 µg/mL (≈ 12 µM)
- MIC90 ([1]; Streptococcus beta-hemolytic, 90%): 8 µg/mL (≈ 24 µM)
- MIC ([14]; 14 MORG MORG CMC 84 38, 35 Celsius): 0.03 µg/mL (≈ 0.09 µM)
- MIC ([14]; 15 MORG MORG MOR 84 45, 35 Celsius): 0.03 µg/mL (≈ 0.09 µM)
- MIC [15]: 2 µg/mL (≈ 6 µM)
- MIC ([16]; 10 SERRAT MARC MOR 84 41, 35 Celsius): 0.06 µg/mL (≈ 0.18 µM)
- MIC ([16]; 11 SERRAT MARC CMC 83 74, 35 Celsius): 4 µg/mL (≈ 12 µM)
- MIC50 ([3]; Streptococcus faecalis, 50%): 4 µg/mL (≈ 12 µM)
- MIC90 ([3]; Streptococcus faecalis, 90%): 8 µg/mL (≈ 24 µM)
- MIC50 ([4]; Staphylococcus aureus MRSA, 50%): 0.5 µg/mL (≈ 1.5 µM)
- MIC90 ([4]; Staphylococcus aureus MRSA, 90%): 1 µg/mL (≈ 3 µM)
- ED50 ([5]; po): 3.8 mg/kg
- ED50 ([5]; sc): 1.4 mg/kg
- ED50 ([6]; po): 0.8 mg/kg
- ED50 ([6]; sc): 0.71 mg/kg
- ED50 ([7]; po): 0.84 mg/kg
- ED50 ([7]; sc): 0.48 mg/kg
- MIC50 [12, 23]: 4 µg/mL (≈ 12 µM)
- MIC90 [12, 24]: 8 µg/mL (≈ 24 µM)
- MIC50 ([13]; Staphylococcus aureus MSSA, 50%): 0.5 µg/mL (≈ 1.5 µM)
- MIC90 ([13]; Staphylococcus aureus MSSA, 90%): 1 µg/mL (≈ 3 µM)
- MIC [17]: 0.03 µg/mL (≈ 0.09 µM)
- MIC ([18]; 19 PSEU AERUG K 84 16, 35 Celsius): 4 µg/mL (≈ 12 µM)
- MIC ([18]; 20 PSEU AERUG VGH 84 3, 35 Celsius): 8 µg/mL (≈ 24 µM)
- MIC ([18]; 21 PSEU AERUG CMC 83 20, 35 Celsius): 2 µg/mL (≈ 6 µM)
- MIC [19]: 4 µg/mL (≈ 12 µM)
- MIC ([20]; 25 STREP FAEC UCI 85 30, 35 Celsius): 4 µg/mL (≈ 12 µM)
- MIC ([20]; 26 STREP FAEC VGH 84 69, 35 Celsius): 2 µg/mL (≈ 6 µM)
- MIC ([20]; 27 STREP FAEC CMC 83 120, 35 Celsius): 4 µg/mL (≈ 12 µM)
- MIC ([21]; 1 ESCH COLI MOR 84 20, 35 Celsius): 0.06 µg/mL (≈ 0.18 µM)
- MIC ([21]; 2 ESCH COLI VGH 84 19, 35 Celsius): 0.06 µg/mL (≈ 0.18 µM)
- MIC ([21]; 3 ESCH COLI CMC 84 50, 35 Celsius): 0.06 µg/mL (≈ 0.18 µM)
- MIC ([21]; 28 ESCH COLI ATCC 25922, 35 Celsius): 0.03 µg/mL (≈ 0.09 µM)
